Assay results from patent publication US20180273531A1, “PYRIMIDINE COMPOUND AND MEDICAL USE THEREOF” (Japan Tobacco Inc., priority 2004, published 2018).

Experiments:
Assay type in all cases: cell-based
p27 protein = p27 protein induction test (Western blotting); conditions: test substance (0.1 1M), 24 hrs, ACHN cells or HT-29 cells, compared to DMSO, n=2
Method: ACHN cells or HT-29 cells were cultured in a 6 well plate at 2.5×10^5 cells/1.8 mL/well for 24 hrs, a test substance ([…]) dissolved in DMSO was added. After 24 hrs, cells were detached using trypsin-EDTA (ethylene diamine tetraacetic acid) and solubilized with NuPAGE LDS sample buffer (Invitrogen). Using an RC DC protein assay kit (BIO-RAD), the protein concentration of the sample was quantitated, and a sample in an amount corresponding to 10 μg of BSA (bovine serum albumin) was analyzed by Western blotting using an anti-p27 antibody. The density of the band stained with the anti-p27 antibody was measured by a densitometer to quantify the amount of p27 protein. As a control, DMSO was used and the test was performed with n=2 and the average protein amount was determined.

p15 protein = test: Evaluation of p15 induction activity (Western blotting); conditions: test substance 0.1 μM, 24 hrs, ACHN cells or HT-29 cells, compared to DMSO, n=2
Method in brief: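 p15 protein quantified by densitometry of anti-p15 Western blots (10 μg protein per lane, mean of n=2). Samples came from HT-29 or ACHN cells given 0.1 μM compound for 24 h after 24 h plating, with DMSO as control.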

[1] = test system: colorectal cancer cell line HT-29 cells; test: Growth inhibitory effect against cancer cell lines (3H-thymidine uptake), HT-29; conditions: Homo sapiens, HT-29, inhibition of 3H-thymidine uptake; test substance 18 hrs, then 3H-thymidine 6 hrs; triplicate
Method in brief: (§1)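 IC50 = concentration reducing ^3H-thymidine incorporation to 50% of DMSO control, measured in triplicate. Compound added 24 hrs after plating (1.0×10^4 cells/well); label (0.25 μCi/well) given after 18 hrs of treatment, followed by 6 hrs further culture and scintillation counting of harvested cells.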

[2] = test system: Renal cancer cell line ACHN cell; test: Growth inhibitory effect against cancer cell lines (3H-thymidine uptake), ACHN; conditions: Homo sapiens, ACHN
Method in brief: as §1

Row | SMILES | fold induction at 0.1 µM (p27 protein) | fold induction at 0.1 µM (p15 protein) | IC50 [1] | IC50 [2]
1 | Cn1c(=O)cc(Nc2ccc(Br)cc2F)c2c(=O)n(C3CC3)c(=O)n(-c3cccc(S(=O)(=O)N4CCCCC4)c3)c21 [Example 1-317] | ≥ 1.5 | ≥ 1.5 | 10 to 100 nM | 100 to 1000 nM
2 | Cc1c(=O)n(C)c(Nc2ccc(I)cc2F)c2c(=O)n(C3CC3)c(=O)n(-c3ccc4c(c3)NC(=O)CC4)c12 [Example 4-123] | ≥ 1.5 | ≥ 1.5 | < 10 nM | 100 to 1000 nM
3 | Cc1c(=O)n(C)c(Nc2ccc(I)cc2F)c2c(=O)n(C3CC3)c(=O)n(-c3ccc(C(=O)O)cc3)c12 [Example 4-90] | ≥ 1.5 | ≥ 1.5 | 10 to 100 nM | 100 to 1000 nM
4 | Cc1c(=O)n(C)c(Nc2ccc(I)cc2F)c2c(=O)n(C3CC3)c(=O)n(-c3cc(Cl)cc(NS(C)(=O)=O)c3)c12 [Example 4-64] | ≥ 1.5 | ≥ 1.5 | 10 to 100 nM | 100 to 1000 nM
5 | CCS(=O)(=O)c1cccc(-n2c(=O)n(C3CC3)c(=O)c3c(Nc4ccc(Br)cc4F)n(C)c(=O)c(C)c32)c1 [Example 4-10] | ≥ 1.5 | ≥ 1.5 | 10 to 100 nM | 100 to 1000 nM
6 | Cc1c(=O)n(C)c(Nc2ccc(I)cc2F)c2c(=O)n(C3CC3)c(=O)n(-c3cccc(NS(C)(=O)=O)c3)c12 [Example 3-7, N-{3-[3-cyclopropyl-5-(2-fluoro-4-iodophenylamino)-6,8-dimethyl-2,4,7-trioxo-3,4,6,7-tetrahydro-2H-pyrido[4,3-d]pyrimidin-1-yl]phenyl}methanesulfonamide] | ≥ 1.5 | ≥ 1.5 | < 10 nM | < 10 nM
7 | CC(C)C(=O)Nc1cccc(-n2c(=O)n(C3CC3)c(=O)c3c(Nc4ccc(Br)cc4F)cc(=O)n(C)c32)c1 [Example 1-287] | ≥ 1.5 | ≥ 1.5 | 10 to 100 nM | 100 to 1000 nM
8 | Cn1c(=O)cc(Nc2ccc(Br)cc2F)c2c(=O)n(C3CC3)c(=O)n(-c3cccc(S(=O)(=O)N4CCCC4)c3)c21 [Example 1-318] | ≥ 1.5 | ≥ 1.5 | < 10 nM | 100 to 1000 nM
9 | CCc1ccc(Nc2c3c(=O)n(C4CC4)c(=O)n(-c4ccc(NS(C)(=O)=O)cc4)c3c(C)c(=O)n2C)c(F)c1 [Example 4-78] | ≥ 1.5 | ≥ 1.5 | 10 to 100 nM | 100 to 1000 nM
10 | CC(=O)Nc1cccc(-n2c(=O)n(C3CC3)c(=O)c3c(Nc4ccc(C(C)C)cc4F)n(C)c(=O)c(C)c32)c1 [Example 4-98] | ≥ 1.5 | ≥ 1.5 | < 10 nM | 10 to 100 nM
11 | CSc1ccc(Nc2cc(=O)n(C)c3c2c(=O)n(C2CC2)c(=O)n3-c2ccccc2)c(F)c1 [Example 1-285] | ≥ 1.5 | ≥ 1.5 | 10 to 100 nM | 10 to 100 nM
12 | C=Cc1ccc(Nc2c3c(=O)n(C4CC4)c(=O)n(-c4cccc(NC(C)=O)c4)c3c(C)c(=O)n2C)c(F)c1 [Example 4-11] | ≥ 1.5 | ≥ 1.5 | < 10 nM | 10 to 100 nM
13 | CNC(=O)Nc1cccc(-n2c(=O)n(C3CC3)c(=O)c3c(Nc4ccc(Br)cc4F)cc(=O)n(C)c32)c1 [Example 1-325] | ≥ 1.5 | ≥ 1.5 | 10 to 100 nM | 100 to 1000 nM
14 | C=Cc1ccc(Nc2cc(=O)n(C)c3c2c(=O)n(C2CC2)c(=O)n3-c2ccccc2)c(F)c1 [Example 1-240] | ≥ 1.5 | ≥ 1.5 | 10 to 100 nM | 10 to 100 nM
15 | Cn1c(=O)cc(Nc2ccc(I)cc2Cl)c2c(=O)n(C3CC3)c(=O)n(-c3cccc(NS(C)(=O)=O)c3)c21 [Example 1-322] | ≥ 1.5 | ≥ 1.5 | < 10 nM | 10 to 100 nM
16 | CC(=O)Nc1ccc(-n2c(=O)n(C3CC3)c(=O)c3c(Nc4ccc(I)cc4F)n(C)c(=O)c(C)c32)cc1 [Example 4-66] | ≥ 1.5 | ≥ 1.5 | 10 to 100 nM | 100 to 1000 nM
17 | Cn1c(=O)cc(Nc2ccc(CCF)cc2F)c2c(=O)n(C3CC3)c(=O)n(-c3cccc(NS(C)(=O)=O)c3)c21 [Example 1-338] | ≥ 1.5 | ≥ 1.5 | < 10 nM | 10 to 100 nM
18 | Cc1cc(-n2c(=O)n(C3CC3)c(=O)c3c(Nc4ccc(I)cc4F)n(C)c(=O)c(C)c32)ccc1NS(C)(=O)=O [Example 4-117] | ≥ 1.5 | ≥ 1.5 | < 10 nM | 100 to 1000 nM
19 | CCc1ccc(Nc2cc(=O)n(C)c3c2c(=O)n(C2CC2)c(=O)n3-c2ccccc2)c(F)c1 [Example 1-242] | ≥ 1.5 | ≥ 1.5 | 10 to 100 nM | 100 to 1000 nM
20 | C#Cc1ccc(Nc2cc(=O)n(C)c3c2c(=O)n(C2CC2)c(=O)n3-c2cccc(NS(=O)(=O)CC)c2)cc1 [Example 1-298] | ≥ 1.5 | ≥ 1.5 | < 10 nM | 10 to 100 nM
21 | Cc1c(=O)n(C)c(Nc2ccc(I)cc2F)c2c(=O)n(C3CC3)c(=O)n(-c3ccc4[nH]nnc4c3)c12 [Example 4-121] | ≥ 1.5 | ≥ 1.5 | < 10 nM | 10 to 100 nM
22 | Cn1c(=O)cc(Nc2ccc(Br)cc2F)c2c(=O)n(C3CC3)c(=O)n(-c3cccc(NS(C)(=O)=O)c3)c21 [Example 1-1, N-{3-[5-(4-bromo-2-fluoro-phenylamino)-3-cyclopropyl-8-methyl-2,4,7-trioxo-3,4,7,8-tetrahydro-2H-pyrido[2,3-d]pyrimidin-1-yl]phenyl}-methanesulfonamide] | ≥ 1.5 | ≥ 1.5 | < 10 nM | 10 to 100 nM
23 | Cn1c(=O)c2c(Nc3ccc(Br)cc3F)cc(=O)n(C)c2n(-c2ccccc2)c1=O [Example 1-185] | ≥ 1.5 | ≥ 1.5 | 10 to 100 nM | 100 to 1000 nM
24 | C#Cc1ccc(Nc2c3c(=O)n(C4CC4)c(=O)n(-c4cccc(NS(=O)(=O)CC)c4)c3c(C)c(=O)n2C)c(F)c1 [Example 4-6] | ≥ 1.5 | ≥ 1.5 | < 10 nM | 10 to 100 nM
25 | C#Cc1ccc(Nc2cc(=O)n(C)c3c2c(=O)n(C2CC2)c(=O)n3-c2cccc(NS(C)(=O)=O)c2)c(Cl)c1 [Example 1-337] | ≥ 1.5 | ≥ 1.5 | < 10 nM | 10 to 100 nM
26 | Cc1c(=O)n(C)c(Nc2ccc(I)cc2F)c2c(=O)n(C)c(=O)n(-c3ccc(S(N)(=O)=O)cc3)c12 [Example 4-119] | ≥ 1.5 | ≥ 1.5 | < 10 nM | 10 to 100 nM
27 | Cc1c(=O)n(C)c(Nc2ccc(I)cc2F)c2c(=O)n(C3CC3)c(=O)n(-c3cccc(NS(=O)(=O)N4CCCCC4)c3)c12 [Example 4-59] | ≥ 1.5 | ≥ 1.5 | < 10 nM | 10 to 100 nM
28 | CCn1c(=O)c2c(Nc3ccc(I)cc3F)n(C)c(=O)c(C)c2n(-c2cccc(NC(C)=O)c2)c1=O [Example 4-21] | ≥ 1.5 | ≥ 1.5 | < 10 nM | 10 to 100 nM
